The target of the assay is T1, TSPO (Rattus norvegicus, UniProt P16257).
T1 construct: from tissue; host or cells: coronal cryostat sections (20 μm) of frozen rat brain, control and KASE animals
The experiment in a line: In vitro [^125I]-CLINDE autoradiography on coronal brain sections (post-mortem). The assay is classed as binding. On the procedure:
TSPO binding density was assessed using the selective TSPO ligands, ^125I]-CLINDE and ^18 F]-PBR111 as described previously. Briefly, adjacent sets of unfixed […] sections were incubated in triplicate with 3 nM ^125I]-CLINDE or 4 nM ^18F]-PBR111 in 50 mM Tris buffer (pH 7.4 at 4°C) for 1 h. Non-specific binding was assessed with co-incubation with 10 μM PK11195 (Sigma-Aldrich). Sections were washed in ice cold Tris buffer (2 × 2 min), then distilled water (1 min), before being air dried on a slide warmer at 37°C. They were exposed to film, with ^14C] polymer standards (ARC, USA) for calibration of optical density to becquerel per milligram activity. Films were scanned using a BioRad GS-800 calibrated densitometer (Bio-Rad Laboratories, Hercules, CA, USA), and exposure times were chosen such that the optical density range of the sections was within the pseudolinear response range of the film.
Autoradiographic images were calibrated (cubic fit between optical density and [^14C]-standard values) and quantified using ImageJ ( http://rsbweb.nih.gov/ij/). […] Regions of interest were drawn blinded for control and KASE groups, converted to kilobecquerel per milligram and specific binding calculated.
Coronal brain sections (20 μm, −3.24 mm from bregma according to [21]) were cut using a cryostat, thaw-mounted onto Polysine® microscope slides (LabServ, Australia), and stored at −80°C. During cutting, pictures were taken in EB-injected animals to evaluate extravasation macroscopically. Adjacent sets of unfixed rat brain sections were analysed in triplicate for quantitative autoradiography for TSPO with ^125I]-CLINDE, OX-42 (microglial activation) immunohistochemistry and cresyl violet (cell loss).
Methodology regarding immunohistochemistry was performed as above. Semi-quantitative analysis included visual scoring of OX-42 signal as follows: mild (+), moderate (++) and intense (+++) OX-42 signals. For autoradiography, a preincubation step of 15 min in Tris buffer (50 mM, pH 7.4) was added to remove exogenous TSPO ligand. TSPO binding was assessed as described above in the cortex, corpus callosum, hippocampus and hippocampal subregions (CA1, CA2 and CA3/hilus), thalamus, hypothalamus, amygdala and piriform cortex. Histological verification of cell loss in hippocampal pyramidal cell layers (CA1, CA2, CA3 and hilus) was performed on Nissl-stained sections (using Cresyl Echt Violet) blinded for the treatment group.

The record followed here is article PMC3570346, “PET imaging of brain inflammation during early epileptogenesis in a rat model of temporal lobe epilepsy” (EJNMMI Research, 2012).

T1 sequence (P16257 whole entry): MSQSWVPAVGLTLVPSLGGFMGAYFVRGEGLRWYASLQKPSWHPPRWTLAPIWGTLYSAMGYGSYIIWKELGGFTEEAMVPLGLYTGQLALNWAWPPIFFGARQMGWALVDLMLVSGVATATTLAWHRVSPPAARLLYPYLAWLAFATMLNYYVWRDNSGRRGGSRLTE

For `CCN(CC)C(=O)Cc1c(-c2ccc(I)cc2)nc2ccc(Cl)cn12` [[^125I]-CLINDE], the “% increase of specific binding, KASE vs control” value is, setting by setting: (Hippocampus (CA1)) 613%; (Hippocampus (CA2)) 491%; (Hippocampus (CA3)/hilus) 860%; (Hippocampus (whole, dorsal)) 226%.
